Test results: patent US7087616B2, “Pyrazolyl pyrimidines” (Bayer CropScience AG, priority 2001, dated 2006)
Like-named read-outs stand apart in the source and are kept apart here.

Legend:
[1] = tested on: green peach aphids (Myzus persicae); assay: Myzus Test/Broad Beans; assay type: in vivo; details: broad bean seedlings dipped
Experimental: To produce a suitable preparation of active compound, 1 part by weight of active compound is mixed with the stated amount of solvent and the stated amount of emulsifier, and the concentrate is diluted with emulsifier-containing water to the desired concentrations.
Broad bean (Vicia faba minor) seedlings which are infested by green peach aphids (Myzus persicae) are dipped into a preparation of active compound of the desired concentration and placed into a plastic box.
After the desired period of time, the kill in % is determined. 100% means that all animals have been killed; 0% means that none of the animals have been killed.

[2] = tested on: Meloidogyne incognita; assay: Meloidogyne Test; assay type: in vivo; details: 20 ppm, nematicidal action by gall formation on lettuce
Experimental: (§1) To produce a suitable preparation of active compound, 1 part by weight of active compound is mixed with the stated amounts of solvent and emulsifier, and the concentrate is diluted with water to the desired concentration.
Containers are filled with sand, solution of active compound, Meloidogyne incognita egg/larvae suspension and lettuce seeds. The lettuce seeds germinate and the plants develop. On the roots, galls are formed.
After the desired period of time, the nematicidal action is determined in % by the gall formation. 100% means that no galls were found; 0% means that the number of galls on the treated plants corresponds to that of the untreated control.
The amount of solvent, amount of emulsifier, active compounds, active compound concentrations and test results are shown in the Tables below.

[3] = Aust. J. Chem. 1980, 33, 2291–2298; cited from earlier work
[4] = tested on: larvae of the mustard beetle (Phaedon cochlearae); assay: Phaedon Larvae Test; assay type: in vivo; details: 500 ppm; cabbage leaves dipped
Experimental: [table] To produce a suitable preparation of active compound, 1 part by weight of active compound is mixed with the stated amounts of solvent and emulsifier, and the concentrate is diluted with emulsifier-containing water to the desired concentration. Cabbage leaves (Brassica oleracea) are treated by being dipped into the preparation of active compound of the desired concentration and are populated with larvae of the mustard beetle (Phaedon cochlearae) while the leaves are still moist.

[5] = tested on: cotton aphid (Aphis gossypii); assay: Aphis gossypii Test; assay type: in vivo; details: 144 h, read-out: Kill rate in % after 6d
Experimental: To produce a suitable preparation of active compound, 1 part by weight of active compound is mixed with the stated amounts of solvent and emulsifier, and the concentrate is diluted with emulsifier-containing water to the desired concentration.
Cotton leaves (Gossypium hirsutum) which are heavily infested by the cotton aphid (Aphis gossypii) are treated by being dipped into the preparation of active compound of the desired concentration.
After the desired period of time, the kill in % is determined. 100% means that all aphids have been killed; 0% means that none of the aphids have been killed.

[6] = tested on: Aphis gossypii; assay: Critical Concentration/Root-systemic Action; assay type: in vivo; details: 20 ppm (mg/l soil); root-systemic action, cucumber plants
Experimental: as §1
The preparation of active compound is intimately mixed with soil. The concentration of the active compound in the preparation is of practically no importance here, only the amount by weight of active compound per unit volume of soil, which is given in ppm (=mg/l), being decisive. The treated soil is transferred into pots and these are planted with cucumber plants at the cotyledon stage. In this way, the active compound can be taken up from the plant and be transported into the leaves.
After a further 7 days, evaluation is carried out by counting or estimating the dead animals. The root-systemic action of the active compound is deduced from the mortality figures. It is 100% if all test animals have been killed and 0% if just as many test insects are still alive as in the case of the untreated controls.

[7] = Table A 2, emulsifier 2 parts by weight

COC(=O)CSc1nccc(-n2cc(C)cn2)n1 [drawing 194]
Kill rate in % after 6d ([1]; 500 ppm): 100%

CCOC(=O)CSc1nccc(-n2cc(Cl)cn2)n1 [drawing 169]
Kill rate in % after 14d [2, 7]: 100%

CCOC(=O)CSc1nccc(-n2ccc(C(C)=O)n2)n1
Kill rate in % after 14d [2, 7]: 80%

O=C(O)CSc1nccc(-n2cc(Cl)cn2)n1 [drawing 172]
Kill rate in % after 14d [2, 7]: 85%

O=C(O)CSc1nccc(-n2cc(-c3ccc(Cl)cc3)cn2)n1
Kill rate in % after 14d [2, 7]: 80%

COC(=O)CSc1nccc(-n2cc(Br)cn2)n1 [drawing 195]
Kill rate in % after 6d ([1]; 100 ppm): 100%

Cc1cc(C)n(-c2ccnc(SCC(N)=O)n2)n1 [2-{[4-(3,5-dimethyl-1H-pyrazol-1-yl)-2-pyrimidinyl]thio}acetamide]
enhancing effect on phleomycin [3]: no enhancing effect

O=C(O)CSc1nccc(-n2cc(-c3ccccc3)cn2)n1
Kill rate in % after 7d [4]: 100%

CCOC(=O)CSc1nccc(-n2cc(SC(F)(F)C(F)F)cn2)n1 [drawing 206]
pest or weed control at 500 ppm ([5]; 500 ppm, cotton leaves dipped): 90%

CCOC(=O)CN(C)c1nccc(-n2cccn2)n1 [drawing 198]
pest or weed control at 500 ppm ([5]; 500 ppm, cotton leaves dipped): 99%

COC(=O)CSc1nccc(-n2cc(C)cn2)n1 [drawing 167]
Kill rate in % after 14d ([2]; Table A 1, emulsifier 1 part by weight): 90%

CCOC(=O)CSc1nccc(-n2cccn2)n1 [drawing 197]
Kill rate in % 7d after infection [6]: 90%

O=C(CSc1nccc(-n2cc(Cl)cn2)n1)OCC(F)(F)C(F)(F)C(F)(F)F
pest or weed control at 500 ppm [5]: 99%

CN(CC(=O)OCC(F)(F)C(F)(F)C(F)(F)F)c1nccc(-n2cc(Cl)cn2)n1 [drawing 202]
pest or weed control at 500 ppm [5]: 95%

CCOC(=O)CSc1nccc(-n2cc(C(F)(F)F)cn2)n1 [drawing 201]
pest or weed control at 500 ppm ([5]; 500 ppm, cotton leaves dipped): 95%

CCOC(=O)CSc1nccc(-n2cc(C)cn2)n1 [drawing 196]
Kill rate in % after 6d ([1]; 500 ppm): 99%

CC(OC(=O)CSc1nccc(-n2cc(Cl)cn2)n1)C(F)(F)C(F)(F)C(F)(F)F (centres unmarked) [drawing 204]
pest or weed control at 500 ppm [5]: 90%

C=Cc1cnn(-c2ccnc(SCC(=O)OCC)n2)c1 [drawing 173]
Kill rate in % after 14d [2, 7]: 80%

CCOC(=O)CSc1nccc(-n2cc(-c3ccccc3)cn2)n1 [drawing 207]
Kill rate in % after 7d [4]: 100%

C#Cc1cnn(-c2ccnc(SCC(=O)OCC)n2)c1 [drawing 171]
Kill rate in % after 14d [2, 7]: 90%
